# Reference: patent publication US9050371B2 (Eli Lilly and Company, priority 2008, dated 2015)
# What was measured:
# healthy volunteers = assay: Euglycaemic glucose clamp (glucose infusion rate) after single SC dose in healthy volunteers; format: in vivo, human
# Protocol: In all treatment periods, subjects undergo a euglycaemic clamp procedure for up to 24/36 hours following each insulin compound injection. Glucose infusion rates (GIR) are adjusted to maintain euglycaemia, with the documented GIR over time providing the GD measure of insulin action. The aim of the euglycaemic glucose clamp is to maintain euglycaemia through glucose infusion after the administration of a dose of an insulin compound. It is assumed that endogenous insulin secretion and hepatic glucose output are minimal and that any glucose that is translocated out of the glucose space (i.e., glucose metabolized) is the direct consequence of the administered exogenous insulin. The GIR in this case will be the glucodynamic (GD) measure of the insulin action over time. All glucose clamp studies are performed after an overnight fast of approximately 8 hours. On the morning of the study, a small catheter is placed into a vein of one arm, ideally in the ante-cubital fossa, for administration of 20% dextrose solution (buffered to near neutral pH) under the control of a volumetric pump. Another catheter is placed, ideally in the wrist or hand for venous glucose sampling. This area is heated with a warming device to approximately 55-60° C. for sampling arterialized venous blood. Blood samples are obtained at the bedside for immediate determination of whole blood glucose concentrations using an automated glucose oxidase technique. After basal blood sampling and a stabilization period of approximately 30 minutes, each subject receives a dose of insulin compound administered subcutaneously. The start of the subcutaneous injection of an insulin compound is defined as time zero. Following completion of dosing, in conjunction with frequent blood sampling for measurement of blood glucose, glucose is infused intravenously at a variable rate in order to maintain euglycaemia for up to 24 or 36 hours after insulin administration.
# Blood sampling occurs approximately every 10 minutes for approximately 30 minutes prior to dosing and continued every 5-10 minutes for the first 2 hours after dosing (with the option to sample as frequently as every 2.5 minutes), and then reduced to 10-30 minute intervals up to the end of clamp.
# During the glucose clamp, the glucose infusion rate is adjusted to maintain a pre-determined target blood glucose concentration for the individual subject. Preferably, the target concentration is close to the fasting blood glucose. The aim of the glucose clamp procedure is to maintain the blood glucose concentrations within +5% of the pre-dose target value, which is defined as 5 mg/dL below the mean fasting blood glucose. Thus, blood glucose concentrations are kept constant while the GIR varied. […]
# [1] = calculated from published PK profiles; cited from earlier work
Substance,"GIR profile shape (healthy volunteers; Part C, 0.5 mg/kg)","time GD maintained (healthy volunteers; Part C, 0.5 mg/kg)","GIR compared with peak GIR response for glargine (healthy volunteers; Part C, 0.5 mg/kg, glargine 0.5 U/kg, data not shown)","duration of action compared with insulin glargine (healthy volunteers; humans, FIG. 2: LY 0.225 mg/kg, glargine 0.5 U/kg)",peak-trough (PT) ratio [1]
"LY: 20 kDa PEGylated insulin lispro, about 95% or more at B28 and 5% or less at A1, prepared as in Example 9",“peakless”,greater than 36 hours,exceeded the peak GIR response for glargine,longer than that of insulin glargine,–
glargine,–,–,–,–,1.2-2.6
